Laboratory results taken from PubChem BioAssay AID206 (DTP/NCI, 2004).
Where “and” joins values, the source holds several entries; their conditions need not be identical. Equal values may be shown once. Records with an inconclusive call do not appear.

Test system: nude mice, HT29 intrarenal xenograft, tumor weight T/C
Experiment: NCI In Vivo Anticancer Drug Screen. Data for tumor model HT29;CX-1 Human Adenocarcinoma (MER+) (intrarenal inoculation) in NU/NU Swiss (nude) mice
Details: endpoint: mean tumor weight change, higher = larger tumour
In short: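 Compounds were given to mice carrying transplantable tumors; a vehicle-dosed group served as control. The endpoint measured in each group was compared as a T/C quotient.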

[1] = dose: 12.5 mg/kg/injection, schedule: Q04DX004 (sc), vehicle: saline with Tween-80
[2] = dose: 150.0 mg/kg/injection, schedule: Q04DX004 (sc), vehicle: saline with Tween-80
[3] = dose: 300.0 mg/kg/injection, schedule: Q04DX004 (sc), vehicle: saline with Tween-80
[4] = dose: 600.0 mg/kg/injection, schedule: Q04DX004 (sc), vehicle: saline with Tween-80

In the case of `C[n+]1cccc(NC(=O)c2ccc(NC(=O)C34CCC(C(=O)Nc5ccc(C(=O)Nc6ccc[n+](C)c6)cc5)(CC3)CC4)cc2)c1`, the T/C [1] is reported as 118 % of control, the T/C (dose: 25.0 mg/kg/injection, schedule: Q04DX004 (sc), vehicle: saline with Tween-80) is reported as 47 % of control and the T/C (dose: 50.0 mg/kg/injection, schedule: Q04DX004 (sc), vehicle: saline with Tween-80) is reported as 7 % of control and 21 % of control.
`CCCN1COC(OCC)C(C)(C)C1` (stereo unspecified) was tested, and the T/C [2] was 114 % of control, the T/C [3] was 79 % of control and the T/C [4] was 96 % of control.
In the case of `COc1cccc2c1C(=O)c1c(O)c3c(c(O)c1C2=O)CC(O)(C(=O)CO)CC3OC1CC(N)C(O)C(C)O1` (stereo unspecified), the T/C (dose: 48.0 mg/kg/injection, schedule: Q01DX010 (sc), vehicle: saline) is reported as 90 % of control.
For `CC(C)CCCCCCCCCCCCC(=O)NCC(=O)NC1C(C)OC(Nc2ncnc3nc[nH]c23)C(O)C1O` (stereo unspecified), the T/C (dose: 2.0 mg/kg/injection, schedule: Q01DX010 (sc), vehicle: distilled water + Tween-80) was -35 % of control, the T/C (dose: 2.0 mg/kg/injection, schedule: Q01DX010 (sc), vehicle: saline with Tween-80) was -6 % of control and the T/C (dose: 4.0 mg/kg/injection, schedule: Q04DX004 (sc), vehicle: distilled water + Tween-80) was 37 % of control. The T/C (dose: 8.0 mg/kg/injection, schedule: Q01DX010 (sc), vehicle: distilled water + Tween-80) was 20 % of control, the T/C (dose: 8.0 mg/kg/injection, schedule: Q04DX004 (sc), vehicle: distilled water + Tween-80) was 36 % of control and the T/C (dose: 16.0 mg/kg/injection, schedule: Q01DX010 (sc), vehicle: saline with Tween-80) was 23 % of control.
For `O=C1NCC(Br)C(=O)N1` (stereo unspecified), the T/C [2] was 68 % of control, the T/C [3] was 50 % of control and the T/C [4] was 60 % of control.
`CC[PH+](CC)CC[S-].CC[PH+](CC)CC[S-].[Au+].[Au+]` was tested, and the T/C (dose: 160.0 mg/kg/injection, schedule: Q04DX004 (sc), vehicle: Klucel (hydroxypropylcellulose) (HPC)) was 152 % of control.
In the case of `CCC12C[N+]3([O-])CCc4c([nH]c5ccccc45)C(C(=O)OC)(c4cc5c(cc4OC)N(C)C4C(O)(C(=O)OC)C(OC(C)=O)C6(CC)C=CCN7CCC54C76)CC(C3)C1O2` (stereo unspecified), the T/C (dose: 20.0 mg/kg/injection, schedule: Q04DX004 (sc), vehicle: water) is reported as 81 % of control, the T/C (dose: 40.0 mg/kg/injection, schedule: Q04DX004 (sc), vehicle: water) is reported as 60 % of control and the T/C (dose: 80.0 mg/kg/injection, schedule: Q04DX004 (sc), vehicle: water) is reported as 85 % of control. The T/C (dose: 160.0 mg/kg/injection, schedule: Q04DX004 (sc), vehicle: water) was 71 % of control.
For `Cc1c(CNc2ccc(C(=O)NC(CC(=O)O)C(=O)O)cc2)ccc2nc(N)nc(N)c12` (stereo unspecified), the T/C [1] was 41 % of control.
`CCCCc1ccc(-n2c(C)c(COC(=O)NC)c(COC(=O)NC)c2C)cc1` was tested, and the T/C (dose: 50.0 mg/kg/injection, schedule: Q01DX010 (sc), vehicle: Klucel (hydroxypropylcellulose) (HPC)) was 218 % of control, the T/C (dose: 50.0 mg/kg/injection, schedule: Q04DX004 (sc), vehicle: Klucel (hydroxypropylcellulose) (HPC)) was 53 % of control and the T/C (dose: 100.0 mg/kg/injection, schedule: Q01DX010 (sc), vehicle: Klucel (hydroxypropylcellulose) (HPC)) was 89 % of control. For the same molecule, the T/C (dose: 100.0 mg/kg/injection, schedule: Q04DX004 (sc), vehicle: Klucel (hydroxypropylcellulose) (HPC)) was 53 % of control, the T/C (dose: 200.0 mg/kg/injection, schedule: Q04DX004 (sc), vehicle: Klucel (hydroxypropylcellulose) (HPC)) was 73 % of control and the T/C (dose: 400.0 mg/kg/injection, schedule: Q04DX004 (sc), vehicle: Klucel (hydroxypropylcellulose) (HPC)) was 49 % of control.
For `C[n+]1c2cc(N)ccc2cc2ccc(N)cc21`, the T/C (dose: 1.56 mg/kg/injection, schedule: Q01DX010 (sc), vehicle: saline) was 72 % of control, the T/C (dose: 3.13 mg/kg/injection, schedule: Q01DX010 (sc), vehicle: saline) was 49 % of control and the T/C (dose: 6.25 mg/kg/injection, schedule: Q01DX010 (sc), vehicle: saline) was 88 % of control.
`CC1(C)OC2C(COC(=O)c3ccc([N+](=O)[O-])cc3)OC(NC(=O)N(CCCl)N=O)C2O1` (stereo unspecified) was tested, and the T/C [2] was 38 % of control, the T/C [3] was 26 % of control and the T/C [4] was 70 % of control.
With `CCOC(=O)c1[nH]c2cccc3c2c1CC(Br)C3=O` (stereo unspecified) the T/C [2] was 81 % of control, the T/C [3] was 81 % of control and the T/C [4] was 71 % of control. The T/C (dose: 1200.0 mg/kg/injection, schedule: Q04DX004 (sc), vehicle: saline with Tween-80) was 71 % of control.
In the case of `CCCCC(=O)OCC(=O)[C@]1(O)Cc2c(O)c3c(c(O)c2[C@@H](OC2CC(NC(=O)C(F)(F)F)C(O)C(C)O2)C1)C(=O)c1c(OC)cccc1C3=O` (stereo partly specified), the T/C (dose: 64.0 mg/kg/injection, schedule: Q01DX010 (sc), vehicle: distilled water + Tween-80) is reported as 61 % of control, the T/C (dose: 128.0 mg/kg/injection, schedule: Q01DX010 (sc), vehicle: distilled water + Tween-80) is reported as 83 % of control and the T/C (dose: 256.0 mg/kg/injection, schedule: Q01DX010 (sc), vehicle: distilled water + Tween-80) is reported as 46 % of control.
